Measured values: ChEMBL document CHEMBL1147675, “Optimization of subsite binding to the beta5 subunit of the human 20S proteasome using vinyl sulfones and 2-keto-1,3,4-oxadiazoles: syntheses and cellular properties of potent, selective proteasome inhibitors” (J Med Chem, 2006)
Converted amounts (≈) assume the structure as drawn. Peptide text beside a SMILES is read from it. * marks the point of attachment. Cbz = O=C(OCc1ccccc1)*; OtBu = CC(C)(C)O*

How the values were obtained:
[1] = molecular target: Cathepsin B (Homo sapiens, UniProt P07858)
Description: Inhibition of cathepsin B

[2] = molecular target: Cathepsin S (Homo sapiens, UniProt P25774)
Chain of Cathepsin S (P25774 whole entry): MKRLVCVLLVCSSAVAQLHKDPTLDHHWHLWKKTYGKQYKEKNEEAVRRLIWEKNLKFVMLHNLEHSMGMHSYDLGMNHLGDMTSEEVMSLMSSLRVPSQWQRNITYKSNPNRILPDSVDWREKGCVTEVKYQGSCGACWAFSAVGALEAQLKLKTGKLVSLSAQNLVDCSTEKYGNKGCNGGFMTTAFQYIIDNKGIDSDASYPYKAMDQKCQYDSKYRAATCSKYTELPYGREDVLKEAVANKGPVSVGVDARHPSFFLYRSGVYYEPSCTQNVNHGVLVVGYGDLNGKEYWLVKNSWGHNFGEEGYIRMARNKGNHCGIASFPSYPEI
Description: Inhibition of cathepsin S

[3] = test system: PC-3; assay: cells; conditions: Homo sapiens
Description: Antiproliferative activity against human PC3 cell line

[4] = in vitro; conditions: human, plasma
Description: Stability in human plasma after 120 mins

[5] = physchem; conditions: PBS, pH 7.4
Description: Solubility in PBS at pH 7.4

Cc1ccc(S(=O)(=O)N[C@@H](CC(=O)NCC(C)(C)C)C(=O)N[C@@H](CO)C(=O)N[C@H](/C=C/S(C)(=O)=O)CC(C)C)cc1
IC50 [1]: > 150 µM | IC50 [2]: > 150 µM | IC50 [3]: 2.4 µM | remaining at 2 h [4]: 99% | solubility [5]: 381 µM (≈ 235 µg/mL)

CC(C)C[C@@H](/C=C/S(C)(=O)=O)NC(=O)[C@H](CO)NC(=O)[C@H](CCC(=O)OC(C)(C)C)NS(=O)(=O)c1ccccc1
IC50 [3]: 4 µM

Cc1ccc(S(=O)(=O)N[C@@H](CC(=O)NCC(C)(C)C)C(=O)N[C@@H](C)C(=O)NC(C)(C)C(=O)c2nnc(-c3ccccc3)o2)cc1
remaining at 2 h [4]: 100% | solubility [5]: 249 µM (≈ 160 µg/mL)

Cc1ccc(S(=O)(=O)N[C@@H](CC(=O)NCC(C)(C)C)C(=O)N[C@@H](C)C(=O)N[C@@H](CC(C)C)C(=O)c2nnc(-c3ccc(N(C)C)cc3)o2)cc1
remaining at 2 h [4]: 72% | solubility [5]: < 10 µM

Cc1ccc(S(=O)(=O)N[C@@H](CC(=O)NCC(C)(C)C)C(=O)N[C@@H](C)C(=O)N[C@H](/C=C/S(C)(=O)=O)CC(C)C)cc1
remaining at 2 h [4]: 96% | solubility [5]: 470 µM (≈ 282 µg/mL)

CC(C)C[C@@H](/C=C/S(C)(=O)=O)NC(=O)[C@H](CO)NC(=O)[C@H](CCC(=O)OC(C)(C)C)NC(=O)OCc1ccccc1
IC50 [3]: 3 µM

Cc1cccc(S(=O)(=O)N[C@@H](CC(=O)NCC(C)(C)C)C(=O)N[C@@H](C)C(=O)N[C@@H](CC(C)C)C(=O)c2nnc(-c3ccccc3)o2)c1
remaining at 2 h [4]: 28% | solubility [5]: < 10 µM

CC(C)C[C@@H](C#N)NC(=O)[C@H](CC(C)C)NC(=O)[C@H](CC(C)C)NC(=O)OCc1ccccc1
Ki [1]: 18 µM | Ki [2]: 0.046 µM

Cc1ccc(S(=O)(=O)N[C@@H](CCC(=O)OC(C)(C)C)C(=O)N[C@@H](C)C(=O)N[C@H](/C=C/S(C)(=O)=O)CC(C)C)cc1
IC50 [1]: 13 µM | IC50 [2]: 67 µM | IC50 [3]: 0.5 µM | remaining at 2 h [4]: 7% | solubility [5]: 48 µM (≈ 28.9 µg/mL)

CC[C@H](C)[C@H](NC(=O)OCc1ccccc1)C(=O)N[C@@H](CCC(=O)OC(C)(C)C)C(=O)N[C@@H](C)C(=O)N[C@H](/C=C/S(C)(=O)=O)CC(C)C
IC50 [1]: 29 µM | IC50 [2]: 36 µM | IC50 [3]: 2 µM | remaining at 2 h [4]: 52% | solubility [5]: < 10 µM

CC[C@H](C)[C@H](NC(=O)OCc1ccccc1)C(=O)N[C@@H](CCCC(=O)OC(C)(C)C)C(=O)N[C@@H](C)C(=O)N[C@H](/C=C/S(C)(=O)=O)CC(C)C
IC50 [1]: 18 µM | IC50 [2]: 7.1 µM | remaining at 2 h [4]: 20%

CC[C@H](C)[C@H](NC(=O)OCc1ccccc1)C(=O)N[C@@H](Cc1ccccc1)C(=O)N[C@@H](C)C(=O)N[C@H](/C=C/S(C)(=O)=O)CC(C)C
IC50 [1]: 27 µM | IC50 [2]: 9 µM

CC(C)C[C@@H](/C=C/S(C)(=O)=O)NC(=O)[C@H](C)NC(=O)[C@H](CCC(=O)OC(C)(C)C)NC(=O)c1ccccc1
IC50 [3]: 1.75 µM

CC[C@H](C)[C@H](NC(=O)OCc1ccccc1)C(=O)N[C@@H](CC(C)C)C(=O)N[C@@H](C)C(=O)N[C@H](/C=C/S(C)(=O)=O)CC(C)C
IC50 [1]: 5.8 µM | IC50 [2]: 0.7 µM | IC50 [3]: 0.8 µM | remaining at 2 h [4]: 66%

CC(=O)N[C@@H](CCc1ccccc1)C(=O)N[C@@H](CC(C)C)C(=O)N[C@@H](C)C(=O)N[C@H](/C=C/S(C)(=O)=O)CC(C)C
IC50 [1]: 1.6 µM | IC50 [2]: 6.9 µM

CC[C@H](C)[C@H](NC(=O)OCc1ccccc1)C(=O)N[C@@H](CCC(=O)OC1CCCCC1)C(=O)N[C@@H](C)C(=O)N[C@H](/C=C/S(C)(=O)=O)CC(C)C
remaining at 2 h [4]: 0%

CC[C@H](C)[C@H](NC(=O)OCc1ccccc1)C(=O)N1CCC[C@H]1C(=O)N[C@@H](C)C(=O)N[C@H](/C=C/S(C)(=O)=O)CC(C)C
IC50 [1]: 23 µM | IC50 [2]: 13 µM

CC(C)C[C@@H](/C=C/S(C)(=O)=O)NC(=O)[C@H](C)NC(=O)[C@H](CCC(=O)OC(C)(C)C)NC(=O)OCc1ccccc1
IC50 [1]: 20 µM | IC50 [2]: 3 µM | IC50 [3]: 6.5 µM | remaining at 2 h [4]: 1% | solubility [5]: < 10 µM

CC(C)C[C@@H](/C=C/S(C)(=O)=O)NC(=O)CNC(=O)[C@H](CCC(=O)OC(C)(C)C)NC(=O)OCc1ccccc1
IC50 [1]: > 150 µM | IC50 [2]: 21 µM

Cc1ccc(S(=O)(=O)N[C@@H](CC(=O)NCC(C)(C)C)C(=O)NC(C)(C)C(=O)N[C@H](/C=C/S(C)(=O)=O)CC(C)C)cc1
remaining at 2 h [4]: 100% | solubility [5]: 500 µM (≈ 307 µg/mL)

CC(=O)N[C@@H](CCc1ccccc1)C(=O)N[C@@H](CC(C)C)C(=O)NCC(=O)N[C@H](/C=C/S(C)(=O)=O)CC(C)C
IC50 [1]: > 150 µM | IC50 [2]: 12 µM

CC(C)C[C@@H](/C=C/S(C)(=O)=O)NC(=O)[C@H](C)NC(=O)[C@H](CCC(=O)OC(C)(C)C)NC(=O)C(c1ccccc1)c1ccccc1
IC50 [3]: 0.5 µM | remaining at 2 h [4]: 1% | solubility [5]: < 10 µM

CC[C@H](C)[C@H](NC(=O)OCc1ccccc1)C(=O)N[C@@H](CS(=O)(=O)Cc1ccccc1)C(=O)N[C@@H](C)C(=O)N[C@H](/C=C/S(C)(=O)=O)CC(C)C
IC50 [1]: > 150 µM | IC50 [2]: 12 µM

COC[C@H](NC(=O)[C@H](CC(=O)NCC(C)(C)C)NS(=O)(=O)c1ccc(C)cc1)C(=O)N[C@@H](CC(C)C)C(=O)c1nnc(-c2ccccc2)o1
Ki [1]: 44 µM | Ki [2]: 8.1 µM | remaining at 2 h [4]: 79% | solubility [5]: 37 µM (≈ 25.9 µg/mL)

CC(=O)N[C@@H](CCc1ccccc1)C(=O)N[C@@H](CC(C)C)C(=O)N[C@@H](Cc1ccccc1)C(=O)N[C@H](/C=C/S(C)(=O)=O)CC(C)C
IC50 [1]: 0.85 µM | IC50 [2]: 0.15 µM | IC50 [3]: 3 µM | remaining at 2 h [4]: 100%

CC[C@H](C)[C@H](NC(=O)OCc1ccccc1)C(=O)N[C@@H](CC(=O)OC(C)(C)C)C(=O)N[C@@H](C)C(=O)N[C@H](/C=C/S(C)(=O)=O)CC(C)C
IC50 [3]: 3.25 µM

CC[C@H](C)[C@H](NC(=O)OCc1ccccc1)C(=O)N[C@@H](COCc1ccccc1)C(=O)N[C@@H](C)C(=O)N[C@H](/C=C/S(C)(=O)=O)CC(C)C
IC50 [1]: 38 µM | IC50 [2]: 35 µM | IC50 [3]: 0.45 µM | remaining at 2 h [4]: 83%

CC[C@H](C)[C@H](NC(=O)OCc1ccccc1)C(=O)N[C@@H](CCC(=O)NC(C)(C)CC)C(=O)N[C@@H](C)C(=O)N[C@H](/C=C/S(C)(=O)=O)CC(C)C
IC50 [3]: 0.55 µM | remaining at 2 h [4]: 83% | solubility [5]: 20 µM (≈ 14.2 µg/mL)

CC[C@H](C)[C@H](NC(=O)OCc1ccccc1)C(=O)N[C@@H](CCC(N)=O)C(=O)N[C@@H](C)C(=O)N[C@H](/C=C/S(C)(=O)=O)CC(C)C
IC50 [1]: 54 µM | IC50 [2]: 48 µM

CC[C@H](C)[C@H](NC(=O)OCc1ccccc1)C(=O)N[C@@H](CC(=O)NCC(C)(C)C)C(=O)N[C@@H](C)C(=O)N[C@H](/C=C/S(C)(=O)=O)CC(C)C
IC50 [3]: 0.2 µM | remaining at 2 h [4]: 90% | solubility [5]: < 10 µM

CC(=O)N[C@@H](CCC(=O)OC(C)(C)C)C(=O)N[C@@H](C)C(=O)N[C@H](/C=C/S(C)(=O)=O)CC(C)C
IC50 [1]: 77 µM | IC50 [2]: 170 µM | IC50 [3]: 7.5 µM

Cc1ccc(S(=O)(=O)N[C@@H](CC(=O)NCC(C)(C)C)C(=O)N[C@@H](C)C(=O)N[C@@H](CC(C)C)C(=O)c2nnc(-c3ccccc3)o2)cc1
Ki [1]: 72 µM | Ki [2]: 39 µM | remaining at 2 h [4]: 86% | solubility [5]: 13 µM (≈ 8.69 µg/mL)

CC[C@H](C)[C@H](NC(=O)OCc1ccccc1)C(=O)N[C@@H](CS(C)(=O)=O)C(=O)N[C@@H](C)C(=O)N[C@H](/C=C/S(C)(=O)=O)CC(C)C
IC50 [1]: 140 µM | IC50 [2]: 13 µM

CC[C@H](C)[C@H](NC(=O)OCc1ccccc1)C(=O)N[C@@H](CCC(=O)NC(C)C)C(=O)N[C@@H](C)C(=O)N[C@H](/C=C/S(C)(=O)=O)CC(C)C
IC50 [1]: > 150 µM | IC50 [2]: 41 µM | IC50 [3]: 3000 µM | remaining at 2 h [4]: 89%

CC(=O)N[C@@H](CCc1ccccc1)C(=O)N[C@@H](CC(C)C)C(=O)N[C@H](C)C(=O)N[C@H](/C=C/S(C)(=O)=O)CC(C)C
IC50 [1]: > 150 µM | IC50 [2]: 77 µM

CC[C@H](C)[C@H](NC(=O)OCc1ccccc1)C(=O)N[C@@H](CCC(=O)NC(C)(C)C)C(=O)N[C@@H](C)C(=O)N[C@H](/C=C/S(C)(=O)=O)CC(C)C
IC50 [1]: 51 µM | IC50 [2]: 3.3 µM | IC50 [3]: 5000 µM | remaining at 2 h [4]: 89% | solubility [5]: 57 µM (≈ 39.6 µg/mL)

CC[C@H](C)[C@H](NC(=O)OCc1ccccc1)C(=O)N[C@@H](CCc1ccccc1)C(=O)N[C@@H](C)C(=O)N[C@H](/C=C/S(C)(=O)=O)CC(C)C
IC50 [1]: 41 µM | IC50 [2]: 10 µM | IC50 [3]: 0.6 µM | remaining at 2 h [4]: 22% | solubility [5]: < 10 µM

CC[C@H](C)[C@H](NC(=O)OCc1ccccc1)C(=O)N[C@@H](CCC(=O)OC(C)(C)C)C(=O)N[C@@H](C)C(=O)N[C@H](C=O)CC(C)C (Cbz-IE(OtBu)AL-aldehyde)
IC50 [3]: 0.375 µM

CC(C)C[C@@H](C=O)NC(=O)[C@H](CC(C)C)NC(=O)[C@H](CC(C)C)NC(=O)OCc1ccccc1 [MG-132] (Cbz-Leu-Leu-Leu-aldehyde)
Ki [1]: 0.012 µM | IC50 [3]: 0.6 µM
